From patent publication US9775844B2, “Heterocyclic compounds and uses thereof” (Infinity Pharmaceuticals, Inc., priority 2014, dated 2017)

How the values were obtained:
Farage cell line = assay: Combination isobologram in Farage cell line; format: cell-based; conditions: combination of Compound AA and Compound BB
bone marrow macrophages = assay: RANKL driven differentiation of osteoclasts from bone marrow macrophages; format: cell-based
P-GP (P-glycoprotein 1) = P-GP (P-glycoprotein 1) (Homo sapiens (Human), UniProt P08183); assay: P-glycoprotein inhibition; format: in vitro ADME
Description: Without being bound by a particular theory, the P-gp inhibitor could help maintin levels of the P-gp substrate in tumors overexpressing the P-gp transporter.

[1] = Target organ toxicity (TOT) study, 10 days oral; format: in vivo
Procedure: A target organ toxicity (TOT) study was performed in rats. […] This study assessed clinical observations/mortality, body weights, clinical pathology, toxicokinetics, and histopathology of select tissues. The tissues studied were: Adrenal gland, Bone marrow (femur), Brain, Small Intestine (including GALT), Heart, Large Intestine, Kidney, Stomach, Liver, Pancreas, Spleen, Testis, and Thymus. Doses were selected based on repeat-dose tolerability study, PK and plasma protein binding, and cellular IC50s for PI3K isoforms.

[2] = Mouse pharmacokinetics, oral single and repeat dose; format: in vivo; conditions: female mice, 2, 7.5, 15 mg/kg PO
Procedure: Animals were weighed daily prior to dosing. […] On subsequent dosing days, the animals' condition was noted prior to dosing; the animals were observed within 4 hours of dosing, and at the end of the day.
Samples were collected at pre-dose 0.25, 0.5, 1, 2, 4, 6 and 24 h following the first dose on day 1 and pre-dose (trough), 0.25, 0.5, 1, 2, 4, 6 and 24 h following the final dose on day 3 Animals received a single oral dose daily for 3 consecutive days. Blood was collected by retro-orbital bleeding for all time points on day 1. All other blood sampling was collected by a cardiac puncture. Blood was collected into K2EDTA tubes and placed on wet ice. Within 15 min of collection, the sample was centrifuged at 10,000 rpm at 4° C. for 10 min in a bench top centrifuge and the plasma transferred to a new microcentrifuge tube.
A similar study was carried out using Compound 88. […] Below is a table that details the results for Compound 88: […]

[3] = system: collagen induced arthritis; assay: Rat collagen induced arthritis (CIA) model; format: in vivo
[4] = Dose-exposure proportionality; conditions: in vivo
[5] = system: differentiation of myeloid cells into M2 TAMs; assay: Murine M2 TAM differentiation (ARG1 levels); format: cell-based, mouse; conditions: FIG. 22A/22B
Description: High ARG1 (Arginase-1) levels indicate that myeloid cells are differentiating into M2 macrophages, so lower ARG1 levels relative to a control indicate interference with differentiation into M2 macrophages. Expression of Arginase-1 depletes the tumor microenvironment of arginine, thereby promoting T cell death and NK cell inhibition. Schmid et. al., Proceedings: AACR 103rd Annual Meeting 2012, Cancer Research: Apr. 15, 2012; Volume 72, Issue 8, Supplement 1. […] M2 TAMs promote cancer cell survival (FIG. 23).
M2 macrophages can be produced as follows. Sacrifice mouse and collect femur and tibias Immerse the bones on a petri dish in 70% ethanol for 1-2 min, then remove the bones and let the ethanol dry off for 3-4 min. Cut off a very small portion of the end of the bones to make an easy access for needle insert. Using a 27 g needle filled will media containing DMEM+10% FBS+1% Pen/Strep (complete DMEM), expel the bone marrow from both ends of the bones into a 15 ml petri dish. Pipette the bone marrow to dissociate the bone marrow cells. Centrifuge and add 1× Red Cell lysis buffer to the pellet. Let RBC lyse for 2 min then add equal amount of complete DMEM and centrifuge. The bone marrow from one mouse can be divided into 2 petri dishes containing 7 ml of BMM media (DMEM+20% FBS+1% Pen/Strep+50 ng/ml M-CSF). […] The cells are ready for polarization on day 6. […]

GL-261 = GL-261 glioma model with or without temozolomide; format: in vivo, mouse
Procedure: TMZ was dosed IP 1×/day for 7 days.
Animals: C57 Albino mice (male) from Jackson Labs, n=80. Parameters Evaluated:
In life: Mice were dosed QD with Compound BB. Temozolomide was dosed QD IP, for 7 days. Tumor measurements and bodyweights were taken 2×/week, but caliper and xenogen measurements.
End point analysis: Tumors were cut in half. One half was cut in half again with 1/2 fixed in 10% NBF the other was frozen in OCT for frozen sections. The remaining half was processed to single cell suspention and evaluated by FACS.
PD satilite group—8 mice from the TMZ treated mice and 8 mice from the vehicle treated mice were sacrificed on day 7 post treatment. Tumors were processed to single cell suspention and evaluated by FACS.

Cyp = Cyp Induction (activity and mRNA); format: in vitro ADME

Chain of P-GP (P-glycoprotein 1) (P08183 whole entry, species assumed): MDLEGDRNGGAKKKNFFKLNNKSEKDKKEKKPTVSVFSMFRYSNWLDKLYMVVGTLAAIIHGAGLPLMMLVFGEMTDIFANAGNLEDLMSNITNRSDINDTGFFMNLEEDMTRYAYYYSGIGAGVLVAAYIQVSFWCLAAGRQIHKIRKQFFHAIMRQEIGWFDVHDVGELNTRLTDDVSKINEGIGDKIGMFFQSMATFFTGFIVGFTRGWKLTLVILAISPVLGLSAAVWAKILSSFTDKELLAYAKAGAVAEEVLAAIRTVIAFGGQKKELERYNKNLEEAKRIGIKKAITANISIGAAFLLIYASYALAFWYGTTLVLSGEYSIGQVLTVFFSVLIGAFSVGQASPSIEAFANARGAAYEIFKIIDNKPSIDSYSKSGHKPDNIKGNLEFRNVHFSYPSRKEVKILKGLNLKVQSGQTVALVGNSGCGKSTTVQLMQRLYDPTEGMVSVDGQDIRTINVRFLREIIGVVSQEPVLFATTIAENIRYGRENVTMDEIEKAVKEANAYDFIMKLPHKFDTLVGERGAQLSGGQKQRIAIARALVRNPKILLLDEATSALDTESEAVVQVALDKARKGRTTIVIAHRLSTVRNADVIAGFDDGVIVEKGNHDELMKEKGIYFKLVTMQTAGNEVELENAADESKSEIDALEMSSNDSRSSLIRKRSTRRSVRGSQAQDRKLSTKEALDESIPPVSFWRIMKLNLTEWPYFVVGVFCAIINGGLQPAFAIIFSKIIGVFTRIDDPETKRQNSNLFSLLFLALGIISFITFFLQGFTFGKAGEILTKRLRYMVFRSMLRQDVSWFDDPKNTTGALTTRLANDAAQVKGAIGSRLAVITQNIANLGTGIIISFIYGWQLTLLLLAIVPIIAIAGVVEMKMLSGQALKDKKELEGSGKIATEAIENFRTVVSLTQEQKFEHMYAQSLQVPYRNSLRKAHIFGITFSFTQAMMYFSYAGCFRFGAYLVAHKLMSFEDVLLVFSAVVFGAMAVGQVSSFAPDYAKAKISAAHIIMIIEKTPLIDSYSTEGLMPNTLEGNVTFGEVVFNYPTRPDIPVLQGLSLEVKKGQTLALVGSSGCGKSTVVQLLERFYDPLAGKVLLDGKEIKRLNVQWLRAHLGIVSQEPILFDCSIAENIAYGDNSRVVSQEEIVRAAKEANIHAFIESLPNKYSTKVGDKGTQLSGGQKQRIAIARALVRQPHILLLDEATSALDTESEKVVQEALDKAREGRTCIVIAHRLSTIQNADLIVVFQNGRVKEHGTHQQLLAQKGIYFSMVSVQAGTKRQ

In the case of C[C@H](NC(=O)c1c(N)nn2cccnc12)c1cc2cccc(C#Cc3cnn(C)c3)c2c(=O)n1-c1ccccc1 [Compound BB], the “combination effect (isobologram)” value (Farage cell line) is reported as “synergistic effect”, the “RANKL driven differentiation of osteoclasts” value (bone marrow macrophages) is reported as “prevents” and the P-GP inhibition (P-GP (P-glycoprotein 1)) is reported as “appears to be an inhibitor of P-GP”. For the same molecule, the inhibition at 10 µM (P-GP (P-glycoprotein 1); 10 uM, read-out: PGP Inhibition @ 10 uM) was 98%, the IC50 (P-GP (P-glycoprotein 1); read-out: PGP Inhibition IC50) was less than 1000 nM and the “decrease in body weights compared to vehicle” value ([1]; high dose animals (50 mg/kg/day)) was 5-8%. For the same molecule, the “histopathology, thymus” value ([1]; males at ≧7.5 mg/kg/day, females at 50 mg/kg/day) was “minimal/mild lymphoid depletion”, the “histopathology, spleen (marginal zone and PALS)” value ([1]; primarily at doses ≧20 mg/kg/day) was “minimal/mild lymphoid depletion” and the clinical pathology ([1]; primarily in 20 and 50 mg/kg/day groups) was “minimal changes in neutrophils, lymphocytes, and fibrinogen”. For the same molecule, the “histopathology, gross changes” value ([1]; rats, oral, 10 days) was “no significant gross changes”, the tolerability ([1]; rats, oral, 10 days, 1 to 50 mg/kg/day) was “well-tolerated” and the “mortality and clinical signs” value ([1]; rats, oral, 10 days, any dose level) was “No mortality or clinical signs”. For the same molecule, the “stability in serum (unbound plasma concentration time course)” value [2] was “good stability in serum”, the “bone resorption score reduction” value ([3]; 0.5 mg/kg) was 25% and the “cartilage damage score reduction” value ([3]; 0.5 mg/kg) was 28%. For the same molecule, the inflammation score reduction ([3]; 0.5 mg/kg) was 27%, the pannus score reduction ([3]; 0.5 mg/kg) was 28% and the “periosteal bone formation score reduction” value ([3]; 0.5 mg/kg) was 52%. For the same molecule, the “periosteal bone widths reduction” value ([3]; 0.5 mg/kg) was 47%, the “reduction in summed scores” value ([3]; 0.5 mg/kg, non-significant) was 31% and the “reduction of scored parameters” value ([3]; 0.5 mg/kg, non-significant) was 27-52%. For the same molecule, the “bone resorption score reduction” value ([3]; 1.5 mg/kg) was 44%, the “cartilage damage score reduction” value ([3]; 1.5 mg/kg) was 45% and the inflammation score reduction ([3]; 1.5 mg/kg) was 36%. The pannus score reduction ([3]; 1.5 mg/kg) was 44%, the “periosteal bone formation score reduction” value ([3]; 1.5 mg/kg) was 52% and the “periosteal bone widths reduction” value ([3]; 1.5 mg/kg) was 50%. For the same molecule, the “reduction in summed scores” value ([3]; 1.5 mg/kg, significant) was 42%, the “bone resorption score reduction” value ([3]; 5 mg/kg) was 65% and the “cartilage damage score reduction” value ([3]; 5 mg/kg) was 59%. The inflammation score reduction ([3]; 5 mg/kg) was 57%, the pannus score reduction ([3]; 5 mg/kg) was 71% and the “periosteal bone formation score reduction” value ([3]; 5 mg/kg) was 82%. The “periosteal bone widths reduction” value ([3]; 5 mg/kg) was 82%, the “reduction in summed scores” value ([3]; 5 mg/kg, significant) was 64% and the “reductions in all scores” value ([3]; 5 mg/kg, significant) was 57-82%. The mean ankle diameter ([3]; day 9 to day 17, FIG. 1) was “therapeutic effects”, the dose-exposure proportionality [4] was “exhibits dose-exposure proportionality” and the “M2 TAM differentiation (ARG1 levels)” value [5] was “inhibited M2 TAM differentiation much more effectively than PI3K-δ inhibitor”. The “tumor volume, GL-261, compared to vehicle” value (GL-261; 15 mg/kg QD PO following TMZ @ 1 mg/kg) was “significant reduction in tumor volume”, the “tumor volume, GL-261, compared to vehicle” value (GL-261; treated from the start of treatment, 15 mg/kg QD PO) was “significant reduction in tumor volume” and the “Cyp Induction @ 10 uM” value (Cyp) was “Neg (activity and mRNA)”.
